Measurements from patent US5656604A, “Peptide compound and its preparation” (Fujisawa Pharmaceutical Co., Ltd., priority 1990, dated 1997).

Tested on: rabbit thoracic aorta contraction induced by endothelin
Method: Thoracic aorta were isolated from freshly killed male albino rabbits (11 weeks old) and cut into 25 mm strips with the intima denuded. After removing fatty tissues, these arterial segments (2 mm width and 25 mm length) were suspended in 25 ml organ chambers filled with Krebs-Ringer solution (113 mM NaCl, 4.8 mM KCl, 2.2 mM CaCl2, 1.2 mM MgCl2, 25 mM NaHCO3, 1.2 mM KH2 PO4, 5.5 mM glucose) maintained at 37° C. and gassed with 95% O2 /5% CO2.
A preload of 0.5 g was applied after the aorta had been conditioned by application of increasing concentration of KCl. Contractions were measured as an increase in isometric tension.
Test Compound was tested against contractile response of rabbit aorta induced by endothelin (3.2×10^-9 M). […] Test Compound was added after the full contraction response induced by endothelin.

IC50: 230 nM
Structure (SMILES): CC(C)C[C@H](NC(=O)NC1CCCCC1)C(=O)N[C@H](Cc1cn(C)c2ccccc12)C(=O)N[C@H](Cc1ccccn1)C(=O)O [A]
